According to paper PMC5684552 (Evidence-based Complementary and Alternative Medicine : eCAM, 2017):

Tests used:
[1] = biological target: human TRPV1 receptor channel (Homo sapiens, UniProt Q8NER1); assay: Two-electrode voltage clamp of capsaicin-induced current in Xenopus oocytes expressing wild type human TRPV1; type: cell-based; details: for inhibition of capsaicin-induced current: 100 μM gomisin A plus 1 μM capsaicin, voltage ramp
[2] = test system: control oocytes; assay: Two-electrode voltage clamp of control oocytes injected with H2O; type: cell-based, X. laevis; details: for inward peak current in control oocytes: oocytes injected with 40 nl H2O
[3] = biological target: TRPV1 K466A mutant (Homo sapiens, UniProt Q8NER1, form not given, species not given); type: cell-based; details: holding potential −80 mV
[4] = biological target: TRPV1 YNA2 double mutant (Homo sapiens, UniProt Q8NER1, Y454A, form not given, species not given); type: cell-based; details: holding potential −80 mV
[5] = biological target: TRPV1 A452Y mutant (Homo sapiens, UniProt Q8NER1, A453Y); type: cell-based; details: holding potential −80 mV
[6] = biological target: TRPV1 L465A mutant (Homo sapiens, UniProt Q8NER1, form not given, species not given); type: cell-based; details: holding potential −80 mV
[7] = biological target: TRPV1 R455A mutant (Homo sapiens, UniProt Q8NER1, R456A, species not given); type: cell-based; details: holding potential −80 mV
[8] = biological target: TRPV1 T468A mutant (Homo sapiens, UniProt Q8NER1, T469A, species not given); type: cell-based; details: holding potential −80 mV
[9] = biological target: TRPV1 V469A mutant (Homo sapiens, UniProt Q8NER1, form not given, species not given); type: cell-based; details: holding potential −80 mV
[10] = biological target: TRPV1 V456A mutant (Homo sapiens, UniProt Q8NER1, V456A, species not given); type: cell-based; details: holding potential −80 mV
[11] = biological target: TRPV1 Y454A mutant (Homo sapiens, UniProt Q8NER1, Y455A); type: cell-based; details: holding potential −80 mV
[12] = biological target: TRPV1 N467A mutant (Homo sapiens, UniProt Q8NER1, form not given, species not given); type: cell-based; details: holding potential −80 mV
[13] = biological target: TRPV1 Y453A mutant (Homo sapiens, UniProt Q8NER1, Y454A, species not given); type: cell-based; details: holding potential −80 mV
TRPV1 Y453A mutant, sequence (Q8NER1 whole entry Y454A): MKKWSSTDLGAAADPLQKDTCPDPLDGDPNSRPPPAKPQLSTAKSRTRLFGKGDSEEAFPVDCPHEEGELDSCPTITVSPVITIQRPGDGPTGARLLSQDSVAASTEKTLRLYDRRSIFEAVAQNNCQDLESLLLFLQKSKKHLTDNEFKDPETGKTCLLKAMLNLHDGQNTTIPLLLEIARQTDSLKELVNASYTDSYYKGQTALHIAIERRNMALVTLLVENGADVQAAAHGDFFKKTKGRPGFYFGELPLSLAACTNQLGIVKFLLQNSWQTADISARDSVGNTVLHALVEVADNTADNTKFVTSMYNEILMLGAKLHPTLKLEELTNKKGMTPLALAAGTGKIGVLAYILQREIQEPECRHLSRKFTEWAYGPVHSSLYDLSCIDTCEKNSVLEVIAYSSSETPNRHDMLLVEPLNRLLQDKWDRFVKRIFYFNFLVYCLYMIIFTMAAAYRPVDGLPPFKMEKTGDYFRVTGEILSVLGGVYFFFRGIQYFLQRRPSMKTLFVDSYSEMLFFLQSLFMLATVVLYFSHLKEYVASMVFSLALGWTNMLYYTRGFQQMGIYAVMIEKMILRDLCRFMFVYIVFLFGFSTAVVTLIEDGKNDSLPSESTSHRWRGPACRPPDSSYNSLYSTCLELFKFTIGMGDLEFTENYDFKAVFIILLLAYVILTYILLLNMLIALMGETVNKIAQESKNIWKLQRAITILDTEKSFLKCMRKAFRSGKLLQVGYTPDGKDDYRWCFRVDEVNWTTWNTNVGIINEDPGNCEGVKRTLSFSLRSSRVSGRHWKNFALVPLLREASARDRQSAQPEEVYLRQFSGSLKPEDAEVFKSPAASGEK

human TRPV1 receptor channel, sequence (Q8NER1 whole entry): as the sequence (Q8NER1 whole entry Y454A) above, with A454Y counted along it
TRPV1 T468A mutant, sequence (Q8NER1 whole entry T469A): as the sequence (Q8NER1 whole entry Y454A) above, with A454Y, T469A counted along it
TRPV1 Y454A mutant, sequence (Q8NER1 whole entry Y455A): as the sequence (Q8NER1 whole entry Y454A) above, with A454Y, Y455A counted along it
TRPV1 K466A mutant, sequence (Q8NER1 1-837 isoform Q8NER1-3, stated change not applied): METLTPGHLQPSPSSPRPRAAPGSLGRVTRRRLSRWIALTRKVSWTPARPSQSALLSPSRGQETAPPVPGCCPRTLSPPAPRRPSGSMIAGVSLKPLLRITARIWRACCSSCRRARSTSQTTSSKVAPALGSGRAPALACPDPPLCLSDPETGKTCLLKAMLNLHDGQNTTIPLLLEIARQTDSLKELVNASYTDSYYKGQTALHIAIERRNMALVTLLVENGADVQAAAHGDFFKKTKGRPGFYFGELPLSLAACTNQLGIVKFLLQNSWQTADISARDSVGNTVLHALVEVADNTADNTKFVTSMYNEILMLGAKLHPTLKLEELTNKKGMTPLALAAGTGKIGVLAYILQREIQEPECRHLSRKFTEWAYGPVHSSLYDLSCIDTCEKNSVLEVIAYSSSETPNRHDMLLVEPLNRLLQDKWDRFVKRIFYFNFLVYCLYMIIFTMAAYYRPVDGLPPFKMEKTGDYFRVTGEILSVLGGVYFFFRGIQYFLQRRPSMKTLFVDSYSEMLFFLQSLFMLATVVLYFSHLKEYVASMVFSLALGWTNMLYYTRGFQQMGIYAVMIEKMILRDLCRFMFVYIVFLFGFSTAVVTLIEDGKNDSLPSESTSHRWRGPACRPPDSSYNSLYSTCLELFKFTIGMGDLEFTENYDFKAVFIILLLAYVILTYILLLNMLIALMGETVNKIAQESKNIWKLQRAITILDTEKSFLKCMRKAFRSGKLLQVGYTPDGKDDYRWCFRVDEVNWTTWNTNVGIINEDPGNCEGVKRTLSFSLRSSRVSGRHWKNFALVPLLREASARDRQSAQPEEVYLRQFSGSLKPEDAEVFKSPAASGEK
TRPV1 V456A mutant, sequence (Q8NER1 1-837 isoform Q8NER1-3 V456A): as the sequence (Q8NER1 1-837 isoform Q8NER1-3, stated change not applied) above, with V456A counted along it
TRPV1 V469A mutant, sequence (Q8NER1 whole entry, stated change not applied): as the sequence (Q8NER1 whole entry Y454A) above, with A454Y counted along it
TRPV1 N467A mutant, sequence (Q8NER1 whole entry, stated change not applied): as the sequence (Q8NER1 whole entry Y454A) above, with A454Y counted along it
TRPV1 L465A mutant, sequence (Q8NER1 whole entry, stated change not applied): as the sequence (Q8NER1 whole entry Y454A) above, with A454Y counted along it
TRPV1 A452Y mutant, sequence (Q8NER1 whole entry A453Y): as the sequence (Q8NER1 whole entry Y454A) above, with A453Y, A454Y counted along it
TRPV1 R455A mutant, sequence (Q8NER1 whole entry R456A): as the sequence (Q8NER1 whole entry Y454A) above, with A454Y, R456A counted along it
TRPV1 YNA2 double mutant, sequence (Q8NER1 whole entry Y454A, form open): as the sequence (Q8NER1 whole entry Y454A) above

Compound: COc1cc(CNC(=O)CCCC/C=C/C(C)C)ccc1O [capsaicin, reference compound]
- reversal membrane voltage potential of capsaicin-induced inward current ([1]; 1 μM capsaicin, ramp −100 to +80 mV): ~−10 mV
- effect of agonist on current ([1]; 1 μM, holding potential −80 mV): stimulated an inward current
- inward peak current in control oocytes ([2]; 1 μM): did not result in any inward peak current

Compound: gomisin A
- Vmax [3]: 64.7 ± 2.1
- n (Hill coefficient) [3]: 2.3 ± 0.5
- Vmax [4]: 17.9 ± 6.5
- Vmax [5]: 79.2 ± 3.1
- n (Hill coefficient) [5]: 2.2 ± 0.8
- effect of compound alone on currents of human TRPV1 receptor ([1]; 100 μM alone, holding potential −80 mV): had no effect
- percent inhibition of capsaicin-induced inward current ([1]; 100 μM gomisin A coapplied with 1 μM capsaicin, −80 mV): 46.5 ± 4.5%
- inhibition of capsaicin-induced current ([1]; at +80 mV): 42.6 ± 11.2%
- inhibition of capsaicin-induced current ([1]; at −100 mV): 71.1 ± 16.2%
- Vmax ([1]; […], inhibition of capsaicin-induced current, holding potential −80 mV): 72.9 ± 1.0
- manner of attenuation of capsaicin-elicited inward peak currents ([1]; cotreatment with capsaicin): reversible, voltage insensitive, concentration dependent, and noncompetitive
- percent inhibition of capsaicin-induced inward current ([1]; preapplication of gomisin A, 1 μM capsaicin): 48.2 ± 7.2%
- Vmax [6]: 68.3 ± 3.5
- n (Hill coefficient) [6]: 1.8 ± 0.3
- Vmax [7]: 64.4 ± 2.6
- n (Hill coefficient) [7]: 1.7 ± 0.6
- Vmax [8]: 67.9 ± 1.5
- n (Hill coefficient) [8]: 1.6 ± 0.5
- inward current in control oocytes on coapplication ([2]; 10 μM gomisin A coapplied with 1 μM capsaicin, H2O-injected oocytes): did not result in an inward current
- inward peak current in control oocytes ([2]; 10 μM): did not result in any inward peak current
- Vmax [9]: 72.5 ± 5.6
- n (Hill coefficient) [9]: 2.1 ± 0.7
- Vmax [10]: 91.5 ± 2.6
- n (Hill coefficient) [10]: 1.8 ± 0.8
- Vmax [11]: 59.2 ± 3.0
- n (Hill coefficient) [11]: 2.2 ± 0.8
- Vmax [12]: 24.7 ± 2.0
- n (Hill coefficient) [12]: 1.3 ± 0.5
- Vmax [13]: 38.3 ± 2.4
- n (Hill coefficient) [13]: 1.2 ± 0.5

Compound: Oc1cc2c(cc1O)CN(C(=S)NCCc1ccc(Cl)cc1)CCC2 [capsazepine, reference compound]
- effect of antagonist on capsaicin-stimulated inward current ([1]; 10 μM capsazepine cotreated with 1 μM capsaicin): blocked the capsaicin-stimulated inward current
- inhibition at 10 µM ([1]; 10 μM capsazepine cotreated with 1 μM capsaicin, −80 mV, read-out: percent inhibition of capsaicin-induced inward current): 79.5 ± 4.5%
